This note sets out measurements from patent US20140256754A1, “QUINAZOLINES AS B-GLUCURONIDASE NOVEL INHIBITORS” (priority 2013, published 2014).

As usually defined, the IC50 is the concentration needed to halve the response being measured. As a reminder, the % Inhibition is the percentage by which the read-out fell short of the control. Read a high % Inhibition as strong suppression.

Experiment [1] concerns the target T1, β-glucuronidase (UniProt A3KMY8).
T1 sequence (A3KMY8 1-652): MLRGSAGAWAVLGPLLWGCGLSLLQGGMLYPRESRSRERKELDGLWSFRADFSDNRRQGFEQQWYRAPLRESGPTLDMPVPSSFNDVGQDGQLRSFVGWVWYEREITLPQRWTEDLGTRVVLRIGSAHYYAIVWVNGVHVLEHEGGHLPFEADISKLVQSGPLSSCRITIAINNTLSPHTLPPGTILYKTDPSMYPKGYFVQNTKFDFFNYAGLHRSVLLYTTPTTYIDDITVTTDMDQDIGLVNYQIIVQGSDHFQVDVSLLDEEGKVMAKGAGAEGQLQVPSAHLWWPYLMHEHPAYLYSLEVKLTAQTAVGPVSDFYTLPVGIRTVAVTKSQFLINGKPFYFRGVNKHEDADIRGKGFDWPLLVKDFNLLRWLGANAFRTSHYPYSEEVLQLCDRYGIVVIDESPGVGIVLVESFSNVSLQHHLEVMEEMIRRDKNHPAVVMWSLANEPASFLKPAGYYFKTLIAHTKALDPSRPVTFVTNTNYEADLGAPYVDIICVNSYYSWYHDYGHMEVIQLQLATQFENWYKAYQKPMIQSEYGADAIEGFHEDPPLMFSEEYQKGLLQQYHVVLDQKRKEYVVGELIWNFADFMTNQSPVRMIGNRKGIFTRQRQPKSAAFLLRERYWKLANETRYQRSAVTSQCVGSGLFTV
Briefly: β-Glucuronidase inhibition, spectrophotometric p-nitrophenyl-β-D-glucuronide assay. It is filed as biochemical. The conditions noted are these: for % Inhibition: test concentration not given. As to the method:
The total reaction volume was 250 μL. […] The reaction mixture contained 185 μL of 0.1 M acetate buffer, 5 μL of test compound solution, 10 μL of (1U) enzyme solution was incubated at 37° C. for 30 min. […] All assays were run in triplicate. IC50 Values were calculated by using EZ-Fit software (Perrella Scientific Inc., Amherst, Mass., USA). These values are the mean of three independent assays.

In experiment [2] the test system is PC-3 cells. In words: MTT cytotoxicity assay against PC-3 cells. The note with it: read-out: IC50 (μM) ± SEM, 72 h. (In general: Tetrazolium assays rely on reduction of a dye to a coloured formazan, in cell work by metabolically active cells.)
Description: For this purpose, PC-3 cells (Prostrate Cancer)/3T3(Mouse fibroblast) were cultured in Dulbecco's Modified Eagle's Medium, supplemented with 5% of foetal bovine serum (FBS), 100 IU/mL of penicillin and 100 μg/mL of streptomycin in 25 cm^3 flask and kept in 5% CO2 incubator at 37° C. Exponentially growing cells were harvested, counted with haemocytometer and diluted with a particular medium.
Subsequently, 100 μL of DMSO was added to each well. The extent of MTT reduction to formazan within cells was calculated by measuring the absorbance at 570 nm, using a microplate ELISA reader (Spectra Max plus, Molecular Devices, Calif., USA).
Setting [3] is: read-out: IC50 (μM) ± SEM, mean of three independent assays.

Molecules are shown by their SMILES. Where two headings read alike, the source gives them in different places.

As for `O=c1[nH]c(-c2ccccc2O)nc2ccccc12` [Compound 2, 2-(2-Hydroxyphenyl)quinazolin-4(3H)-one], the half-inhibitory concentration (IC50) in experiment [1] (setting [3]) was 10 ± 0.54 µM; in experiment [2], above 30 µM. Also, the “% Inhibition” value in experiment [1] came out at 99.1%.
Turning to `O=c1[nH]c(-c2ccc(O)cc2)nc2ccccc12` [Compound 3, 2-(4-Hydroxyphenyl)quinazolin-4(3H)-one], the IC50 is 22.2 ± 0.31 µM in experiment [1] (setting [3]) and above 30 µM in experiment [2]. Moreover, the “% Inhibition” value in experiment [1] is reported as 99.6%.
As for `O=c1[nH]c(-c2cccc(O)c2)nc2ccccc12` [Compound 4, 2-(3-Hydroxyphenyl)quinazolin-4(3H )-one], the “% Inhibition” value in experiment [1] is recorded as 78.5%. Further, the 50% inhibitory concentration (IC50) in experiment [2] was above 30 µM.
Consider `O=c1[nH]c(-c2ccc(O)c(O)c2)nc2ccccc12` [Compound 5, 2-(3,4-Dihydroxyphenyl)quinazolin-4(3H)-one], for which, in experiment [2], the half-inhibitory concentration (IC50) was above 30 µM.
For the molecule `O=c1[nH]c(-c2cc(O)ccc2O)nc2ccccc12` [Compound 6, 2-(2,5-Dihydroxyphenyl)quinazolin-4(3H)-one], the IC50 in experiment [2] is above 30 µM.
Take `COc1ccc(O)c(-c2nc3ccccc3c(=O)[nH]2)c1` [Compound 7, 2-[2-Hydroxy-5-(methyloxy)phenyl]quinazolin-4(3H)-one]: in experiment [2], the half-inhibitory concentration (IC50) was above 30 µM.
As for `COc1ccc(-c2nc3ccccc3c(=O)[nH]2)cc1O` [Compound 8, 2-[3-Hydroxy-4-(methyloxy)phenyl]quinazolin-4(3H)-one], the IC50 in experiment [1] (setting [3]) is 2.8 ± 0.042 µM; in experiment [2], above 30 µM. Moreover, in experiment [1], the “% Inhibition” value is recorded as 84.0%.
Regarding `COc1ccc(-c2nc3ccccc3c(=O)[nH]2)cc1` [Compound 10, 2-[4-(Methyloxy)phenyl]quinazolin-4(3H)-one], the IC50 is 1.1 ± 0.05 µM in experiment [1] (setting [3]) and above 30 µM in experiment [2]. For the same molecule, the “% Inhibition” value in experiment [1] was 99.7%.
Turning to `COc1ccc(-c2nc3ccccc3c(=O)[nH]2)cc1OC` [Compound 11, 2-[3,4-Bis(methyloxy)phenyl]quinazolin-4(3H)-one], in experiment [2], the IC50 was above 30 µM.
As to `COc1cc(-c2nc3ccccc3c(=O)[nH]2)cc(OC)c1OC` [Compound 12, 2-[3,4,5-Tris(methyloxy)phenyl]quinazolin-4(3H)-one], the “% Inhibition” value in experiment [1] is reported as 97.6%. The figures for the IC50 in experiment [1] (unit inferred) and in experiment [2] were 120 ± 2.54 µM and above 30 µM, respectively.
For `CCOc1ccc(-c2nc3ccccc3c(=O)[nH]2)cc1` [Compound 13, 2-[4-(Ethyloxy)phenyl]quinazolin-4(3H)-one], the IC50 in experiment [2] is above 30 µM.
`CCOc1ccccc1-c1nc2ccccc2c(=O)[nH]1` [Compound 14, 2-[2-(Ethyloxy)phenyl]quinazolin-4(3H)-one]: in experiment [2], the IC50 was above 30 µM.
Still for that read-out and setting: under `CCOc1cc(-c2nc3ccccc3c(=O)[nH]2)ccc1O` [Compound 15, 2-[3-(Ethyloxy)-4-hydroxyphenyl]quinazolin-4(3H)-one] stands above 30 µM; under `O=c1[nH]c(-c2ccccc2Cl)nc2ccccc12` [Compound 16, 2-(2-Chlorophenyl)quinazolin-4(3H)-one], above 30 µM.
Consider `O=c1[nH]c(-c2ccc(Cl)cc2Cl)nc2ccccc12` [Compound 17, 2-(2,4-Dichlorophenyl)quinazolin-4(3H)-one], for which the IC50 in experiment [2] is above 30 µM.
Take `O=c1[nH]c(-c2c(Cl)cccc2Cl)nc2ccccc12` [Compound 18, 2-(2,6-Dichlorophenyl)quinazolin-4(3H)-one]: the concentration for half-maximal inhibition (IC50) in experiment [2] is above 30 µM.
Turning to `O=c1[nH]c(-c2ccc(Cl)cc2)nc2ccccc12` [Compound 19, 2-(4-Chlorophenyl)quinazolin-4(3H)-one], the 50% inhibitory concentration (IC50) in experiment [2] was above 30 µM.
For the molecule `O=c1[nH]c(-c2ccccc2[N+](=O)[O-])nc2ccccc12` [Compound 20, 2-(2-Nitrophenyl)quinazolin-4(3H)-one], the IC50 in experiment [2] is above 30 µM.
For the molecule `O=c1[nH]c(-c2cccc([N+](=O)[O-])c2)nc2ccccc12` [Compound 21, 2-(3-Nitrophenyl)quinazolin-4(3H)-one], the 50% inhibitory concentration (IC50) in experiment [1] (setting [3]) was 50.4 ± 1.4 µM; in experiment [2], above 30 µM. The “% Inhibition” value in experiment [1] is recorded as 95.1%.
Regarding `O=c1[nH]c(-c2ccc([N+](=O)[O-])cc2)nc2ccccc12` [Compound 22, 2-(4-Nitrophenyl)quinazolin-4(3H)-one], the half-inhibitory concentration (IC50) in experiment [1] (setting [3]) was 20.1 ± 0.92 µM; in experiment [2] it was above 30 µM. The “% Inhibition” value in experiment [1] came out at 96.4%.
Regarding `CN(C)c1ccc(-c2nc3ccccc3c(=O)[nH]2)cc1` [Compound 23, 2-[4-(Dimethylamino)phenyl]quinazolin-4(3H)-one], the results for the IC50 in experiment [1] (setting [3]) and in experiment [2] were 5.5 ± 0.1 µM and above 30 µM, respectively. Moreover, in experiment [1], the “% Inhibition” value was 99.6%.
For the molecule `Cc1ccc(-c2nc3ccccc3c(=O)[nH]2)cc1` [Compound 24, 2-(4-Methylphenyl)quinazolin-4(3H)-one], the “% Inhibition” value in experiment [1] was found to be 96.3%. Further, the half-inhibitory concentration (IC50) in experiment [2] is above 30 µM.
With `O=c1[nH]c(-c2c(O)cccc2Br)nc2ccccc12` [Compound 25, 2-(2-Bromo-6-hydroxyphenyl)quinazolin-4(3H)-one], in experiment [2], the IC50 is above 30 µM.
